SMILES: Nc1nc(N)nc(-c2ccncc2)n1
- solubility (mole fraction) (in THF, 288.15 K): 0.00308
- solubility (mole fraction) (in THF, 293.15 K): 0.00334
- solubility (mole fraction) (in THF, 298.15 K): 0.00362
- solubility (mole fraction) (in THF, 303.15 K): 0.0039
- solubility (mole fraction) (in THF, 308.15 K): 0.00407
- solubility (mole fraction) (in THF, 313.15 K): 0.00433
- solubility (mole fraction) (in THF, 318.15 K): 0.00455
- solubility (mole fraction) (in ethanol, 288.15 K): 0.000734
- solubility (mole fraction) (in ethanol, 293.15 K): 0.000813
- solubility (mole fraction) (in ethanol, 298.15 K): 0.000925
- solubility (mole fraction) (in ethanol, 303.15 K): 0.0011
- solubility (mole fraction) (in ethanol, 308.15 K): 0.00122
- solubility (mole fraction) (in ethanol, 313.15 K): 0.00137
- solubility (mole fraction) (in ethanol, 318.15 K): 0.00159
- solubility (mole fraction) (in isopropanol, 288.15 K): 0.000426
- solubility (mole fraction) (in isopropanol, 293.15 K): 0.000506
- solubility (mole fraction) (in isopropanol, 298.15 K): 0.000641
- solubility (mole fraction) (in isopropanol, 303.15 K): 0.000787
- solubility (mole fraction) (in isopropanol, 308.15 K): 0.000925
- solubility (mole fraction) (in isopropanol, 313.15 K): 0.00116
- solubility (mole fraction) (in isopropanol, 318.15 K): 0.00142
- solubility (mole fraction) (in methanol, 288.15 K): 0.00138
- solubility (mole fraction) (in methanol, 293.15 K): 0.00149
- solubility (mole fraction) (in methanol, 298.15 K): 0.0017
- solubility (mole fraction) (in methanol, 303.15 K): 0.00198
- solubility (mole fraction) (in methanol, 308.15 K): 0.00214
- solubility (mole fraction) (in methanol, 313.15 K): 0.00237
- solubility (mole fraction) (in methanol, 318.15 K): 0.00269
- solubility (mole fraction) (in n-propanol, 288.15 K): 0.000641
- solubility (mole fraction) (in n-propanol, 293.15 K): 0.00072
- solubility (mole fraction) (in n-propanol, 298.15 K): 0.00083
- solubility (mole fraction) (in n-propanol, 303.15 K): 0.000942
- solubility (mole fraction) (in n-propanol, 308.15 K): 0.00111
- solubility (mole fraction) (in n-propanol, 313.15 K): 0.00128
- solubility (mole fraction) (in n-propanol, 318.15 K): 0.00153
